Values joined by “and” are separate entries in the source; they are usually repeats but may differ in a detail not shown here. Equal entries are not always repeated.
How the values were obtained:
Human TRPV4 = Human TRPV4 (Homo sapiens, UniProt Q9HBA0); assay: TRPV4 calcium flux assay (FLIPR, antagonist mode); assay type: cell-based; design: HiBiT (inferred from the expression read-out); host or cells: HEK293T; conditions: HEK293T cells transfected with hTRPV4; antagonist mode vs EC80 of TRPV4 agonist; average of at least 3 separate experiments; read-out: Human TRPV4 Ca2+ Assay IC50
Sequence of Human TRPV4 (Q9HBA0 whole entry): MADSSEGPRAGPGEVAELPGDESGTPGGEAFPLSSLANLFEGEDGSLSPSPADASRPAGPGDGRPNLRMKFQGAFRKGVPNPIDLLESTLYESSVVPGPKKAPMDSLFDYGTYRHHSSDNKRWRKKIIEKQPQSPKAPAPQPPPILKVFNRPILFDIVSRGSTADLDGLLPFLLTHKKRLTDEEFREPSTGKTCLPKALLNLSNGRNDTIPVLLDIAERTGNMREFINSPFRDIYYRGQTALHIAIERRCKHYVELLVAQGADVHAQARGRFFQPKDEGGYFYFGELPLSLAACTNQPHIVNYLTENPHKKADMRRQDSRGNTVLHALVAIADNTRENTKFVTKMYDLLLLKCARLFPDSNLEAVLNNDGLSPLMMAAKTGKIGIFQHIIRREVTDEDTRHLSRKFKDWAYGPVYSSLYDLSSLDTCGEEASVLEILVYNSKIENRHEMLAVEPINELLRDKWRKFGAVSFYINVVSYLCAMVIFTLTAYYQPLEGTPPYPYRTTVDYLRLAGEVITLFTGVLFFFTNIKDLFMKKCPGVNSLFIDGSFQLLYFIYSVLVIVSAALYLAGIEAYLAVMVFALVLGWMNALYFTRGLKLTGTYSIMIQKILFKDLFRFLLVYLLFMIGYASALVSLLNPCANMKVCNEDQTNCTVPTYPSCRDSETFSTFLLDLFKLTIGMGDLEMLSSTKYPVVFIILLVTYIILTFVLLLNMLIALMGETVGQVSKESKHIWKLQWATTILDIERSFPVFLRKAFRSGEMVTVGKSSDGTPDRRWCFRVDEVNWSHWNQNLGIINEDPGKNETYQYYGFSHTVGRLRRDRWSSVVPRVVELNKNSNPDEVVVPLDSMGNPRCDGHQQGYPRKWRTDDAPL
Description: Example 23. TRPV4 Calcium Assay Methods
Human embryonic kidney 293T (HEK293T/293T) cells are cultured in complete media (Dulbecco's Modified Eagle Medium (DMEM), containing 10% fetal bovine serum (FBS) and 1× penicillin-streptomycin) in a T-75 tissue culture flask. At 90% confluency, cells are detached using TrypLE™ Express cell dissociation buffer. TrypLE™ Express buffer is neutralized by adding culture media in excess. Cells are gently triturated and counted using trypan blue in a Countess 3 automated cell counter. Cells are transferred to a 50 mL conical tube and spun down at 1000 rotations per minute (RPM) for five minutes in a benchtop centrifuge. Media containing detaching enzyme is aspirated off the pellet, followed by resuspension to the desired concentration of 2×10^6 cells per mL in complete DMEM.
Transfection preparations were scaled using a combination of 6 μg of TRPV4 wild-type or mutant plasmid DNA, 36 μL of Fugene6 transfection reagent, and 1000 μL of OptiMEM media for every 2×10^6 cells needed. The transfection mix is left to incubate for 20 minutes at room temperature. Total seeding mixture (1000 μL 2×10^6 cells, 1000 μL transfection mix previously described, and 1000 μL complete DMEM) for one transfection is combined into a 15 mL conical tube. The cells and transfection plasmid are mixed thoroughly and dispensed into a reservoir. This is plated at 25 μL per well in a black 384, black-well, clear-bottom, tissue-culture treated plate. This yields approximately 16,000 cells per well. Plasmid DNA constructs were designed by Actio Biosciences in conjunction with Genscript, and generated by Genscript, for all hTRPV4 wild-type and hTRPV4 P/LP (ClinVar) mutations (G78W, P82S, T891, P97R, R186Q, R232C, R232P, R237G, R237Q, R237 L, R269C, R269H, R269S, G270V, R271P, F273 L, K276E, E278K, G280S, Y281S, R315G, R315W, R316C, R316H, R316 L, R316S, I331F, D333G, S403T, K403T, K407E, S542P, S542Y, L543R, Y591N, R594C, R594H, R594S, G600E, Y602C, R616Q, F617 L, L618P, V6201, A716S, A716T, L735R, T740I, R775K, W785R, E797D, E797K, P799A, P799R, P799S, P799 L, G800D, K801E, P827H, F471del, N797del). The remaining cells are plated in the same manner, in a 384, white-well, clear-bottom, tissue-culture treated plate for expression and relative cell number determination. Plates are placed in the incubator at 37° C. overnight.
Compounds were brought to 10 mM in DMSO. DMSO concentration was kept constant throughout the dilution of any compound. DMSO negative control and concentration-response curves were nanoliter-spotted via PICO8 automated dispenser at 5× test concentration into a 384w clear polypropylene plate containing 1×HBSS+20 mM HEPES buffer. A predetermined concentration equivalent to the EC80 of TRPV4 agonist on hTRPV4 was prepared at 6× in 1×HBSS+20 mM HEPES and loaded into a separate 384-well v-bottom polypropylene plate.
Approximately 18 hours post-transfection, the cell plates were removed from the incubator and equal volume (25 uL) Calcium 6 dye was gently added. Calcium 6 dye containing probenecid (final 5 mM) was prepared per manufacturer's instructions. Cell plate was returned to the incubator for 1 hour, at 37° C.
FLIPR Penta was programmed to add compound using the following settings • Pipettor Head=384 • Read Mode 1 Excitation Wavelength=470_495 • Read Mode 1 Emission Wavelength=515_575 • Read Mode 1 Exposure=0.1000 • Read Mode 1 Gain=6.50 • Read Mode 1 Excitation Intensity=20 • Volume of addition=12.5 μL • Height=40 μL • Speed=15 μL/second
Raw data was exported and analyzed for maximum signal (RFU) after agonist addition—the average baseline (RFU) in the first 15 seconds per well. Data was plotted in GraphPad Prism to determine EC50 or IC50 of the molecules.

Hepatocytes [1] = assay: Hepatocytes predicted clearance, cyno
Hepatocytes [2] = assay: Hepatocytes predicted clearance, rat
Hepatocytes [3] = assay: Hepatocytes predicted clearance, mouse
[4] = molecular target: recombinant human CYP3A4 enzyme (Homo sapiens, UniProt P08684); assay: CYP3A4 incubation assay; assay type: in vitro ADME; design: Metabolic Stability in Recombinant Human CYP3A4 + NADPH (% remaining after 25 min): dose or concentration left out as unconfirmed
Sequence of recombinant human CYP3A4 enzyme (P08684 whole entry): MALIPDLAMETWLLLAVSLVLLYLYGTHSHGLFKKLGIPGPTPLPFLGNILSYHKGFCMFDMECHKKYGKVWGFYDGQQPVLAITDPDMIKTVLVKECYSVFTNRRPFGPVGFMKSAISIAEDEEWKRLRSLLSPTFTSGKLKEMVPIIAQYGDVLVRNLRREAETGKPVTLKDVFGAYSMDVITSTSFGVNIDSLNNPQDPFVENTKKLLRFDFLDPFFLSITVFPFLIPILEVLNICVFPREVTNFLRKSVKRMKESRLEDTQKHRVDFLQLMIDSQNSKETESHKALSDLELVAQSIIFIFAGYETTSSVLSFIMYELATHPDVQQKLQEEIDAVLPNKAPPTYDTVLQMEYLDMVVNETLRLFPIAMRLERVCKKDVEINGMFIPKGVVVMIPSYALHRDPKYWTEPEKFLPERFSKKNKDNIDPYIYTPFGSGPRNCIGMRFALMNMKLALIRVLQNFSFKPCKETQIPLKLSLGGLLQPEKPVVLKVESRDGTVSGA
Description: Example 24. CYP3A4 Incubation Assay
Compounds (final concentration […]) were incubated in 100 mM phosphate buffer containing 100 pmol/mL recombinant human CYP3A4 enzyme for 0, 5, 10, 15 and 25 minutes.
Testosterone was used as positive control. Reaction was initiated by the addition of NADPH (final concentration […]) and carried out at 37° C. The reaction was stopped by the addition of 4 volumes of cold acetonitrile (with 100 nM alprazolam, 200 nM labetalol, 200 nM imipramine and 2 μM ketoprofen as internal standards). Samples were centrifuged at 3,220 g for 40 minutes to precipitate protein. 70 μL supernatant was transferred to the analysis plate containing 110 μL of acetonitrile for LC-MS/MS analysis.
The following table indicates the percentage remaining for the indicated examples after incubation with recombinant Human CYP3A4 after 25 minutes under the same conditions as described for Example […].

Hepatocytes [5] = assay: Hepatocytes predicted clearance, dog
Hepatocytes [6] = assay: Hepatocytes predicted clearance, human
[7] = human clinical trials, background statement; cited from earlier work
[8] = 100 pmol/mL recombinant human CYP3A4, 37° C., 0-25 min

Row | CYP3A4 Clint ([4]; human, recombinant enzyme) | Metabolic Stability in Recombinant Human CYP3A4 + NADPH (% remaining after 25 min) ([4]; human, recombinant enzyme) | SMILES | IC50 (Human TRPV4) | Hepatocytes predicted clearance in cyno (Hepatocytes [1]) | Hepatocytes predicted clearance in rat (Hepatocytes [2]) | Hepatocytes predicted clearance in mouse (Hepatocytes [3]) | CYP3A4 Clint [4, 8] | Hepatocytes predicted clearance in dog (Hepatocytes [5]) | Hepatocytes predicted clearance in human (Hepatocytes [6]) | Metabolic Stability in Recombinant Human CYP3A4 + NADPH (% remaining after 25 min) ([4]; recombinant Human CYP3A4 + NADPH) | efficacy across several human disease indications [7]
1 |  |  | CC(C)(O)c1cnc(N2C[C@@]3(CCC(F)(F)[C@H](Cn4cnc5ccc(C#N)cc54)C3)OC2=O)cn1 [Example 2, 1-(((5S,7S)-8,8-Difluoro-3-(5-(2-hydroxypropan-2-yl)pyrazin-2-yl)-2-oxo-1-oxa-3-azaspiro[4.5]decan-7-yl)methyl)-1H-benzo[d]imidazole-6-carbonitrile] | 217 nM | 34.8 mL/min/kg | < 0.17 mL/min/kg | 31 mL/min/kg | 0.08 μL/min/pmol CYP450 and < 0.07 μL/min/pmol CYP450 | 1.3 mL/min/kg | < 0.17 mL/min/kg |  | 
2 |  |  | CC(C)(O)c1cnc(N2C[C@@]3(CCC(F)(F)[C@](C)(Cn4cnc5ccc(C#N)cc54)C3)OC2=O)cn1 [Example 15, 1-(((5S,7S)-8,8-Difluoro-3-(5-(2-hydroxypropan-2-yl)pyrazin-2-yl)-7-methyl-2-oxo-1-oxa-3-azaspiro[4.5]decan-7-yl)methyl)-1H-benzo[d]imidazole-6-carbonitrile] | 8 nM | 28.3 mL/min/kg | 4.5 mL/min/kg | 27.8 mL/min/kg | 0.09 μL/min/pmol CYP450 and < 0.07 μL/min/pmol CYP450 | 4.33 mL/min/kg | 3.83 mL/min/kg | 91.3% | 
3 | 0.18 μL/min/pmol CYP450 | 69.6% | CC(C)(O)c1cnc(N2C[C@@]3(CCC[C@](C)(Cn4cnc5ccc(C#N)cc54)C3)OC2=O)cn1 [GSK2798745, reference compound] | 10 nM | 21.5 mL/min/kg | 20.7 mL/min/kg | 44.3 mL/min/kg |  | 7.17 mL/min/kg | < 0.17 mL/min/kg |  | failed to show efficacy
